From publication PMC11274883, “Anticancer Effect of Pt^[sequence], Pt^II5MESS, Pt^II56MESS and Their Platinum(IV)-Dihydroxy Derivatives against Triple-Negative Breast Cancer and Cisplatin-Resistant Colorectal Cancer” (Cancers, 2024)

What was measured:
MDA−MB−231 cells [1] = assay: Western blot protein expression; format: cell-based; settings: MDA−MB−231, IC50, 72 h; for β-actin/GAPDH normalized to control (1): representative blot Figure S24A; for β-tubulin/GAPDH normalized to control (1): representative blot Figure S24B; for α-tubulin/GAPDH normalized to control (1): representative blot Figure S24C; for p-AKT/AKT/GAPDH normalized to control (1): representative blot Figure S25A; for p-ERK/ERK/GAPDH normalized to control (1): representative blot Figure S25B; for p53/GAPDH normalized to control (1): representative blot Figure S25C; for p21/GAPDH normalized to control (1): representative blot Figure S25D; for Bax/GAPDH normalized to control (1): representative blot Figure S26A; for Bcl2/GAPDH normalized to control (1): representative blot Figure S26B; for Cytochrome C/GAPDH normalized to control (1): representative blot Figure S26C; for Procaspase 8/GAPDH normalized to control (1): representative blot Figure S26D; for Cleaved BID/GAPDH normalized to control (1): representative blot Figure S26E; for Procaspase 9/GAPDH normalized to control (1): representative blot Figure S26F; for Procaspase 3/GAPDH normalized to control (1): representative blot Figure S26G; for PARP-1/GAPDH normalized to control (1): representative blot Figure S26H; for Beclin1/GAPDH normalized to control (1): representative blot Figure S27A; for ATG5/GAPDH normalized to control (1): representative blot Figure S27B; for ATG16L1/GAPDH normalized to control (1): representative blot Figure S27C; for ATG9A/GAPDH normalized to control (1): representative blot Figure S27D; for ATG4B/GAPDH normalized to control (1): representative blot Figure S27E; for LC3B/GAPDH normalized to control (1): representative blot Figure S27F
How it was run: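 Cells were lysed in RIPA buffer with orthovanadate, and 20 µg protein was run on SDS-PAGE, transferred to PVDF and probed for proliferation, apoptosis, microtubule and autophagy markers. ECL band intensities were normalised to GAPDH and then to untreated control. Three independent experiments were run per marker.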

MDA−MB−231 cells [2] = assay: Label-free quantitative proteomics; format: cell-based, Homo Sapiens; settings: MDA−MB−231, IC50, 72 h; for number of downregulated differentially expressed proteins / number of upregulated differentially expressed proteins: p < 0.05, fold change > 2
Procedure: (§1) The supernatant was then collected into 15 mL tubes, then the cells were washed with PBS and trypsinised. The detached cells were transferred to allocated tubes and centrifuged at 500× g for 5 min at 4 °C. Cell pellet was washed twice with PBS and then resuspended in 300 µL cell lysis buffer (RIPA) for 30 min on ice. Cell extracts were then centrifuged at 12,000× g for 15 min at 4 °C, and the supernatants (containing the proteins) were collected into Lo-Bind Eppendorf. The Bio-Rad protein assay (Bio-Rad, Hercules, CA, USA) was used to assess protein content. For protein extraction and delipidation 100 µL of the cell homogenate was moved to 1.7 mL Lo-Bind Eppendorf tubes and 450 µL methanol was added to the mixture and vortexed. Chloroform (150 µL) was next added and vortexed. Then, water (450 µL) was added to the mixture, vortexed and centrifuged for 5 min at 12,000× g, which formed the protein pellet at the organic/aqueous interface. The layer of chloroform was removed and then 400 µL of methanol was added. The sample was then vortexed and centrifuged at 12,000× g for 15 min. The supernatant was then aspirated and discarded. The pellet was then washed with methanol (400 µL). The supernatant was removed, and the pellets were air-dried overnight. Next, steps were performed for reduction, alkylation, and tryptic digestion of the protein. 0.1% RapiGest (Waters, Milford, MA, USA) in 50 mM aqueous ammonium bicarbonate (20 µL) was added to the air-dried pellet and vortexed for effective suspension. The pellet should completely dissolve. Then, 50 µL of 7 mM DTT in 50 mM aqueous ammonium bicarbonate was added, to give a final concentration of 5 mM DTT. Samples were then heated for 30 min at 60 °C and cooled to room temperature. Iodoacetamide (45 mM) in 50 mM aqueous ammonium bicarbonate was next added to give a concentration of 15 mM. The mixture was allowed to react in the dark for 30 min. Then, 10 ng/µL of Trypsin Gold, Mass spectrometry grade (Promega, NSW, Australia) was added for digestion to occur at room temperature overnight. And 50 µL of 4% (v/v) aqueous trifluoroacetic acid was then added to each tube. Samples were next heated for 45 min at 37 °C to effect decomposition of RapiGest. Samples were then centrifuged at 12,000× g for 10 min at 4 °C. Supernatants were then transferred to total recovery vials and run on a nanoAcquity Ultra-Performance Liquid Chromatography (UPLC) coupled with a Synapt G2-Si instrument (Waters, MA, USA) was used for label-free quantitative protein profiling. Nano-proteomics method is detailed in Method S1. Three independent experiments in triplicates were implemented, while all samples were analysed in a single run with a single injection (1 µL) for each trial. Mass spectrometry (MS) data were processed using Progenesis QI for proteomics (version 4.1, Nonlinear Dynamics, Newcastle upon Tyne, UK), and aligned using UniProt Homo Sapiens reference database IDEP9.6 utilised to cluster and retrieve the initial signature analyses. […] Enrichment studies were performed using gene lists that corresponded to the identified proteins. Overrepresentation analysis was performed based on Gene Ontology (GO) Biological Processes, GO Cellular Components, and GO Molecular Functions using iDEP. Enrichment maps and STRING apps were used to construct pathways networks and explore protein–protein interactions.

HT29 cells = assay: Label-free quantitative proteomics; format: cell-based, Homo Sapiens; settings: HT29, IC50, 72 h; for number of downregulated differentially expressed proteins / number of upregulated differentially expressed proteins: p < 0.05, fold change > 2
Procedure: as §1

Row | SMILES | β-actin/GAPDH normalized to control (1) (MDA−MB−231 cells [1]) | β-tubulin/GAPDH normalized to control (1) (MDA−MB−231 cells [1]) | α-tubulin/GAPDH normalized to control (1) (MDA−MB−231 cells [1]) | p-AKT/AKT/GAPDH normalized to control (1) (MDA−MB−231 cells [1]) | p-ERK/ERK/GAPDH normalized to control (1) (MDA−MB−231 cells [1]) | p53/GAPDH normalized to control (1) (MDA−MB−231 cells [1]) | p21/GAPDH normalized to control (1) (MDA−MB−231 cells [1]) | Bax/GAPDH normalized to control (1) (MDA−MB−231 cells [1]) | Bcl2/GAPDH normalized to control (1) (MDA−MB−231 cells [1]) | Cytochrome C/GAPDH normalized to control (1) (MDA−MB−231 cells [1]) | Procaspase 8/GAPDH normalized to control (1) (MDA−MB−231 cells [1]) | Cleaved BID/GAPDH normalized to control (1) (MDA−MB−231 cells [1]) | Procaspase 9/GAPDH normalized to control (1) (MDA−MB−231 cells [1]) | Procaspase 3/GAPDH normalized to control (1) (MDA−MB−231 cells [1]) | PARP-1/GAPDH normalized to control (1) (MDA−MB−231 cells [1]) | Beclin1/GAPDH normalized to control (1) (MDA−MB−231 cells [1]) | ATG5/GAPDH normalized to control (1) (MDA−MB−231 cells [1]) | ATG16L1/GAPDH normalized to control (1) (MDA−MB−231 cells [1]) | ATG9A/GAPDH normalized to control (1) (MDA−MB−231 cells [1]) | ATG4B/GAPDH normalized to control (1) (MDA−MB−231 cells [1]) | further results
1 | N.N.[Cl][Pt][Cl] [Cisplatin, cisplatin] | 0.5805 | 1.195 | 0.9486 | 0.6181 | 0.2123 | 1.585 | 1.351 | 1.836 | 0.7529 | 2.371 | 0.5682 | 11.07 | 1.122 | 0.8253 | 0.7867 | 0.9211 | 0.8216 | 0.9512 | 0.6551 | 1.551 | LC3B protein expression level increase (MDA−MB−231 cells [1]; Figure 12D): up to 3 folds; LC3B/GAPDH normalized to control (1) (MDA−MB−231 cells [1]): 1.368
2 | Cc1cc2cccnc2c2ncccc12.N[C@H]1CCCC[C@@H]1N.O=[N+]([O-])[O-].O=[N+]([O-])[O-].[Pt+2] [Pt^II5MESS, [Pt(5-methyl-1,10-phenanthroline)(1S,2S-diaminocyclohexane)](NO3)2] | 0.7082 | 0.4163 | 0.6399 | 0.5388 | 0.5947 | 0.7809 | 2.478 | 1.886 | 0.5074 | 1.513 | 0.5099 | 14.29 | 0.3101 | 0.5405 | 0.7693 | 2.588 | 0.5948 | 0.4742 | 0.2882 | 1.839 | DEPs exhibited by the treatment (UpSet plot) (MDA−MB−231 cells [2]): 22; number of downregulated differentially expressed proteins (MDA−MB−231 cells [2]): 75; number of upregulated differentially expressed proteins (MDA−MB−231 cells [2]): 91; DEPs exhibited by the treatment (UpSet plot) (HT29 cells): 34; number of downregulated differentially expressed proteins (HT29 cells): 118; number of upregulated differentially expressed proteins (HT29 cells): 110; LC3B/GAPDH normalized to control (1) (MDA−MB−231 cells [1]): 0.9366
3 | Cc1c(C)c2cccnc2c2ncccc12.N[C@H]1CCCC[C@@H]1N.O=[N+]([O-])[O-].O=[N+]([O-])[O-].[Pt+2] [Pt^II56MESS, [Pt(5,6-dimethyl-1,10-phenanthroline)(1S,2S-diaminocyclohexane)](NO3)2] | 0.5956 | 0.5978 | 0.7887 | 0.5229 | 0.06081 | 0.6187 | 2.6 | 1.276 | 0.6846 | 3.109 | 0.3584 | 14.74 | 0.4755 | 0.4243 | 0.634 | 3.15 | 0.4012 | 0.5726 | 0.2848 | 2.107 | DEPs exhibited by the treatment (UpSet plot) (MDA−MB−231 cells [2]): 165; number of downregulated differentially expressed proteins (MDA−MB−231 cells [2]): 183; number of upregulated differentially expressed proteins (MDA−MB−231 cells [2]): 132; DEPs exhibited by the treatment (UpSet plot) (HT29 cells): 225; number of downregulated differentially expressed proteins (HT29 cells): 228; number of upregulated differentially expressed proteins (HT29 cells): 200; LC3B/GAPDH normalized to control (1) (MDA−MB−231 cells [1]): 0.8478
4 | Cc1cc2cccnc2c2ncccc12.N[C@H]1CCCC[C@@H]1N.O=[N+]([O-])[O-].O=[N+]([O-])[O-].[OH][Pt+2][OH] [Pt^IV5MESS(OH)2, [Pt(5-methyl-1,10-phenanthroline)(1S,2S-diaminocyclohexane)(dihydroxy)](NO3)2] | 0.8788 | 0.3985 | 1.177 | 0.9345 | 0.144 | 1.183 | 1.042 | 1.846 | 0.7914 | 2.795 | 0.3546 | 5.948 | 0.3022 | 0.7167 | 0.5187 | 0.9374 | 1.065 | 1.203 | 0.3984 | 2.797 | number of downregulated differentially expressed proteins (MDA−MB−231 cells [2]): 33; number of upregulated differentially expressed proteins (MDA−MB−231 cells [2]): 38; detected up and down differentially regulated proteins (HT29 cells): 3; LC3B/GAPDH normalized to control (1) (MDA−MB−231 cells [1]): 0.6059
